Assay results: ChEMBL document CHEMBL3991601, “The target landscape of clinical kinase drugs” (Science, 2017)
Activity calls are given as the source filed them.

Experiments:
[1] = target: T1, Glycogen phosphorylase, liver form (Homo sapiens, UniProt P06737); assay type: subcellular, K-562, COLO 205, SK-N-BE(2) and MV-4-11, Cell lysate; settings: read-out: Kd apparent
T1 sequence (P06737 whole entry): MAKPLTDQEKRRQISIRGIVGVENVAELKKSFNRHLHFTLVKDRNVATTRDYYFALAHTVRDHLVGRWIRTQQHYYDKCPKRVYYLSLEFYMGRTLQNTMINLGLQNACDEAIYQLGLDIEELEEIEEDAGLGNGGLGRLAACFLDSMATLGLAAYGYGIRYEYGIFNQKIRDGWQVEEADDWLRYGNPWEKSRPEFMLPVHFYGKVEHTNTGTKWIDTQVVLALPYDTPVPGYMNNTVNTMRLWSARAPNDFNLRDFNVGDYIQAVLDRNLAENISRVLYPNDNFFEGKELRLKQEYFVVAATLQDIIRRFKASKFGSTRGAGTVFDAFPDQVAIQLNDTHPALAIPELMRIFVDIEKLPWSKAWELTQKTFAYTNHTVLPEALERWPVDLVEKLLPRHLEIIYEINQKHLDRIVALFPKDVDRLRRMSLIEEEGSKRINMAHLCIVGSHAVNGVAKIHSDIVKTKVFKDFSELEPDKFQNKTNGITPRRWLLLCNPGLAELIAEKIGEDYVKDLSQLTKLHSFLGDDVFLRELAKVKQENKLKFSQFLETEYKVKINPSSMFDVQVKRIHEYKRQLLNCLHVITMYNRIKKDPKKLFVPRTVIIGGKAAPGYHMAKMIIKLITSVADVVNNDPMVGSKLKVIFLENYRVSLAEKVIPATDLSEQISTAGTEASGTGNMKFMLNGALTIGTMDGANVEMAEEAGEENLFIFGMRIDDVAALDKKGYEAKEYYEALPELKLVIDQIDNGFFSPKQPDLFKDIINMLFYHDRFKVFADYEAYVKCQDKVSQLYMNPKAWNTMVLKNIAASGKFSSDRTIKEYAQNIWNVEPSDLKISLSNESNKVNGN

Adenosine kinase = Adenosine kinase (Homo sapiens, UniProt P55263)
[2] = target: T2, Delta(24)-sterol reductase (Homo sapiens, UniProt Q15392)
T2 sequence (Q15392 whole entry): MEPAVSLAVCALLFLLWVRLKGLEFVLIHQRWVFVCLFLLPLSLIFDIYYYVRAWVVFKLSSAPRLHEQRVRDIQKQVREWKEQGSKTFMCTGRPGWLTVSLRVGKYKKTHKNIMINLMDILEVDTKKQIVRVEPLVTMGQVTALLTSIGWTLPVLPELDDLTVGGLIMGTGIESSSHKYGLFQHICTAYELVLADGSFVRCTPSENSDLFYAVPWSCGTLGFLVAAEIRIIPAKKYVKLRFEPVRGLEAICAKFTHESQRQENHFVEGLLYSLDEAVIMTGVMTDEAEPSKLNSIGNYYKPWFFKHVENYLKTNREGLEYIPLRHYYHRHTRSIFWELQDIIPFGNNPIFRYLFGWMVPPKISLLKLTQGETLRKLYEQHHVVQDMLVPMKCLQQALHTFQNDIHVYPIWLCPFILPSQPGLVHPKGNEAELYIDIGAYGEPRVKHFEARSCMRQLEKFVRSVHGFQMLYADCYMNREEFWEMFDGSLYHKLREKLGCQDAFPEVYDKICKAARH

[3] = target: Mitogen-activated protein kinase 1 (Homo sapiens, UniProt P28482)
[4] = target: Mitogen-activated protein kinase 7 (Homo sapiens, UniProt Q13164)
[5] = target: Serine/threonine-protein kinase pim-1 (Homo sapiens, UniProt P11309)
[6] = target: Protein kinase C beta type (Homo sapiens, UniProt P05771)
[7] = target: Serine/threonine-protein kinase SIK3 (Homo sapiens, UniProt Q9Y2K2)
[8] = target: Proto-oncogene tyrosine-protein kinase Src (Homo sapiens, UniProt P12931)
DNA topoisomerase 2-beta = DNA topoisomerase 2-beta (Homo sapiens, UniProt Q02880)
[9] = target: T3, EKC/KEOPS complex subunit TP53RK (Homo sapiens, UniProt Q96S44)
T3 sequence (Q96S44 whole entry): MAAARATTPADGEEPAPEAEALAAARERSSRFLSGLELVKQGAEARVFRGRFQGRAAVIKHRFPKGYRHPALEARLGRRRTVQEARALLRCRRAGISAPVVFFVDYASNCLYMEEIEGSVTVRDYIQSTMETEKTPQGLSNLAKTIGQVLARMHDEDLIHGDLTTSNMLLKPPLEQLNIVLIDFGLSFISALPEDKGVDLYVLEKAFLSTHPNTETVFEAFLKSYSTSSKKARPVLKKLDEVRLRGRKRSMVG

[10] = target: T4, General transcription and DNA repair factor IIH helicase subunit XPD (Homo sapiens, UniProt P18074); settings: read-out: Kd apparent; k-562, colo 205, sk-n-be(2) and mv-4-11
T4 sequence (P18074 whole entry): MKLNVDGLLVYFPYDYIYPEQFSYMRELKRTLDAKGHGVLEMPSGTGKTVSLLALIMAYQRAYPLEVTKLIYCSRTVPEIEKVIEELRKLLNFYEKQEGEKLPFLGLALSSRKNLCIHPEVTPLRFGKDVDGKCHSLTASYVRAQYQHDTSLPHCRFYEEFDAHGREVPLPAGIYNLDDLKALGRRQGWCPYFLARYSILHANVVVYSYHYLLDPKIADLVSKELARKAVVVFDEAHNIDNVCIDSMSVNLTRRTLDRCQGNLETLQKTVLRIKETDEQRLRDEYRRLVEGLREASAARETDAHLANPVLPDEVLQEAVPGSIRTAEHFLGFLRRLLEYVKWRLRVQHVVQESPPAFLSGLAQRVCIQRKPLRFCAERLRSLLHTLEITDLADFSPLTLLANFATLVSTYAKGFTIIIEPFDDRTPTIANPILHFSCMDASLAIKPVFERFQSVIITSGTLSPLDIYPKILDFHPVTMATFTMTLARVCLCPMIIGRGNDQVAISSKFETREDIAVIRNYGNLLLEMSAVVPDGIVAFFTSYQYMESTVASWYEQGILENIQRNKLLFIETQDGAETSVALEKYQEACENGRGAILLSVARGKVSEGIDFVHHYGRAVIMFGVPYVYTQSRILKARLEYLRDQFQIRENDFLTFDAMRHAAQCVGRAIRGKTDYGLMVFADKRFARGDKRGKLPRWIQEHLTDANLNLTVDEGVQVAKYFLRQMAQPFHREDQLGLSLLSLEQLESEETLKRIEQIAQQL

Measured: Kd
Note: in the data inactive means no Kd found up to 30 µM.

Mitogen-activated protein kinase 7, sequence (Q13164 whole entry): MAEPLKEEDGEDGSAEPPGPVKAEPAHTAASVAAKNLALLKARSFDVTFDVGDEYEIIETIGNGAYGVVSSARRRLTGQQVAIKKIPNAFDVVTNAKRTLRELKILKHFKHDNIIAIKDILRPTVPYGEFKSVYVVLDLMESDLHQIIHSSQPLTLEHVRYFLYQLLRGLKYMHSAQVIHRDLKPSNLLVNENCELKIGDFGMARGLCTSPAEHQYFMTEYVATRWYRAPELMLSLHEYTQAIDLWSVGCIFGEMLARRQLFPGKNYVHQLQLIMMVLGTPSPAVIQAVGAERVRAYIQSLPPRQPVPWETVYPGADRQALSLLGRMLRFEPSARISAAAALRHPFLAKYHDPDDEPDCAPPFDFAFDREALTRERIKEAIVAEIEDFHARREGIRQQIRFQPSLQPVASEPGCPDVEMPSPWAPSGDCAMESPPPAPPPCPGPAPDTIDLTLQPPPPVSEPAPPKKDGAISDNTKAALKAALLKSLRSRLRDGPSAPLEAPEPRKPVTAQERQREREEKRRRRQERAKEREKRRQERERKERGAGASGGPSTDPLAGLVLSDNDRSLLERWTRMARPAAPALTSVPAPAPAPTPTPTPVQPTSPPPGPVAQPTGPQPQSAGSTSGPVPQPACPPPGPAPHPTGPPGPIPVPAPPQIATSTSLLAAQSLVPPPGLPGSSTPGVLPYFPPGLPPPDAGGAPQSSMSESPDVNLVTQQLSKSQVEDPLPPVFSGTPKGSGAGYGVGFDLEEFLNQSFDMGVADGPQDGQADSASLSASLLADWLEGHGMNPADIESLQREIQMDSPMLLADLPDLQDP
Protein kinase C beta type, sequence (P05771 whole entry): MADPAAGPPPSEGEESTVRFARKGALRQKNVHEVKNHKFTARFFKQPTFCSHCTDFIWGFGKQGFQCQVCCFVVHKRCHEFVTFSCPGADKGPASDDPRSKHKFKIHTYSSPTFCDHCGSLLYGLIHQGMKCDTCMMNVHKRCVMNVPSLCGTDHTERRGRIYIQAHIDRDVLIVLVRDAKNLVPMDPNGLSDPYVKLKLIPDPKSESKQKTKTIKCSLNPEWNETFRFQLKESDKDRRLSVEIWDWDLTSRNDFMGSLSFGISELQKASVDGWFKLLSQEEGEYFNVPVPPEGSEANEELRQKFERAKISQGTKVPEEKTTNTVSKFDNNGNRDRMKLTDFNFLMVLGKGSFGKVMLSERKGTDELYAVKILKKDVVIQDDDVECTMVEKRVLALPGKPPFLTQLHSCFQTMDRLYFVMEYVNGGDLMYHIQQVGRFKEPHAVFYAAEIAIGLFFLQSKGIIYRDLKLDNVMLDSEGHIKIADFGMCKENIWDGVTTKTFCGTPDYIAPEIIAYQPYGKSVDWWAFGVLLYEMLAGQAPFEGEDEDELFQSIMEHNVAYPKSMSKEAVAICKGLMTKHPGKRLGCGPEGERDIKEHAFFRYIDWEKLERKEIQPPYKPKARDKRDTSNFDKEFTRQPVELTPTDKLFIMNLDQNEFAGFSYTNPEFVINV
Adenosine kinase, sequence (P55263 whole entry): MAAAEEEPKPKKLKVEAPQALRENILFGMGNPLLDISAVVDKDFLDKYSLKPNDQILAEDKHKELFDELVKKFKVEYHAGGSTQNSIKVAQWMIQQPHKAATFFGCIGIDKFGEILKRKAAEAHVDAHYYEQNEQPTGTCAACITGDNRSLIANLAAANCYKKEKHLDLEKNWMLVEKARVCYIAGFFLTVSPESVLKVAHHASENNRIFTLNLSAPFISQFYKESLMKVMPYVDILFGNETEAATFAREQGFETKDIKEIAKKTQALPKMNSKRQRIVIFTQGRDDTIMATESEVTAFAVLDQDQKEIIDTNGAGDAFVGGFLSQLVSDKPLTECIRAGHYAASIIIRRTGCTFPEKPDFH
DNA topoisomerase 2-beta, sequence (Q02880 whole entry): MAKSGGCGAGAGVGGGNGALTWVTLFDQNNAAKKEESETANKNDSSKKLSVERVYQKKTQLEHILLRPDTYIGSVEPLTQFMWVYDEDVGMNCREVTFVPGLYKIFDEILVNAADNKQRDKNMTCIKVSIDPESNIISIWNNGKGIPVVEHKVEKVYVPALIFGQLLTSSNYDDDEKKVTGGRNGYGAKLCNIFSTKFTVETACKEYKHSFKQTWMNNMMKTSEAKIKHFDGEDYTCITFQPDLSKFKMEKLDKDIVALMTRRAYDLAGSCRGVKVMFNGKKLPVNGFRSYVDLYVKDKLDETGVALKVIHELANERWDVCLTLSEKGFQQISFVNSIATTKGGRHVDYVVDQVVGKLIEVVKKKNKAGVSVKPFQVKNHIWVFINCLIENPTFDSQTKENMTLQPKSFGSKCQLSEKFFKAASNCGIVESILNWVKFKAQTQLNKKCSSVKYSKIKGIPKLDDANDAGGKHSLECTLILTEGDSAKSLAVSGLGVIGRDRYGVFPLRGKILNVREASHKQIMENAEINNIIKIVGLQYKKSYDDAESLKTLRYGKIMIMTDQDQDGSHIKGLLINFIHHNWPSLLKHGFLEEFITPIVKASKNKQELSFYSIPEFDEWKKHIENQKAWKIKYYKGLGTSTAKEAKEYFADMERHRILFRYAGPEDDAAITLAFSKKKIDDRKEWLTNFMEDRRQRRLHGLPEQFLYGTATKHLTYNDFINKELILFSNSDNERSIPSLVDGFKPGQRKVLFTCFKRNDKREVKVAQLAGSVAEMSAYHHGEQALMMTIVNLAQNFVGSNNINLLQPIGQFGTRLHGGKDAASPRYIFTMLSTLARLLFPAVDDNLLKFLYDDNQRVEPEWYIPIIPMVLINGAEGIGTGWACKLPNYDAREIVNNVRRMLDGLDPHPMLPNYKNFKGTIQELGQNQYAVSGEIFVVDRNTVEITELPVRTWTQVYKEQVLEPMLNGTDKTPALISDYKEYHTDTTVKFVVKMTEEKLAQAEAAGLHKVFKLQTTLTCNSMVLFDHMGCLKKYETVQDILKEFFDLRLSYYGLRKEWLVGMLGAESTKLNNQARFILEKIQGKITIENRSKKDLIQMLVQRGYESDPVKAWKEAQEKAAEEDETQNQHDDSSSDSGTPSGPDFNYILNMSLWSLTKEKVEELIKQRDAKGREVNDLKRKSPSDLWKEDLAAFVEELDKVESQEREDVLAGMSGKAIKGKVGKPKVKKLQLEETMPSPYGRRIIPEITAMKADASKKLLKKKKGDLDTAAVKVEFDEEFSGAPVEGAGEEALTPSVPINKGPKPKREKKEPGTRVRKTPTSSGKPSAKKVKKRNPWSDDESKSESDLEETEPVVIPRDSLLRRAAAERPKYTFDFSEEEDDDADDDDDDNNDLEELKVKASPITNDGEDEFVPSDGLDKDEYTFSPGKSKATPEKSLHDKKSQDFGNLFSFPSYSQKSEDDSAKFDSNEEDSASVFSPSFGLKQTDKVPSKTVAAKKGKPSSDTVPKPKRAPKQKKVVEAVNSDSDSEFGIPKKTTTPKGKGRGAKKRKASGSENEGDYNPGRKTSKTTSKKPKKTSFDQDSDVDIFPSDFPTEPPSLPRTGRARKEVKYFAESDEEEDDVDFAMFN
Mitogen-activated protein kinase 1, sequence (P28482 whole entry): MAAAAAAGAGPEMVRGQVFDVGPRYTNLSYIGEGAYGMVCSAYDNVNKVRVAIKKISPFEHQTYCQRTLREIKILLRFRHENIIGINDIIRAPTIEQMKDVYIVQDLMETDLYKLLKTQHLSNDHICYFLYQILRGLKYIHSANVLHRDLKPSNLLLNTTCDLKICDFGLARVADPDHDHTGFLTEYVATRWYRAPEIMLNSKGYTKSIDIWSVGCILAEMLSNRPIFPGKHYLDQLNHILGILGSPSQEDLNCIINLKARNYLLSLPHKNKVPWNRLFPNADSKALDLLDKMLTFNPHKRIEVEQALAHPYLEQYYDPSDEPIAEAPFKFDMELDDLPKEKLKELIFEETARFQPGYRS
Proto-oncogene tyrosine-protein kinase Src, sequence (P12931 2-536 limits assumed): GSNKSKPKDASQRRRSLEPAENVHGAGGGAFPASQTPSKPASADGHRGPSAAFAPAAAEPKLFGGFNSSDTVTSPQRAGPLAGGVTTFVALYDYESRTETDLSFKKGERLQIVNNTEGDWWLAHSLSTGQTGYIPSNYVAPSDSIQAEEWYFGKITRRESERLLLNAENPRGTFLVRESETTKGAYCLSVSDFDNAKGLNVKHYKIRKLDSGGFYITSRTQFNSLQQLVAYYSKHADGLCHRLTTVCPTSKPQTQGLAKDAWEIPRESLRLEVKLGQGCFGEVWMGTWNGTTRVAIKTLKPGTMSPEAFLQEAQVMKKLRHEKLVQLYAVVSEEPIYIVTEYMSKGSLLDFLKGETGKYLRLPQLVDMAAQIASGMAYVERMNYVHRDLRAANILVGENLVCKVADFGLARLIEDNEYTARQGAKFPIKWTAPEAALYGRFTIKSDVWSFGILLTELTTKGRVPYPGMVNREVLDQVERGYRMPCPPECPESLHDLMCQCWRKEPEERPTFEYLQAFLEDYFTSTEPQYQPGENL
Serine/threonine-protein kinase pim-1, sequence (P11309 whole entry): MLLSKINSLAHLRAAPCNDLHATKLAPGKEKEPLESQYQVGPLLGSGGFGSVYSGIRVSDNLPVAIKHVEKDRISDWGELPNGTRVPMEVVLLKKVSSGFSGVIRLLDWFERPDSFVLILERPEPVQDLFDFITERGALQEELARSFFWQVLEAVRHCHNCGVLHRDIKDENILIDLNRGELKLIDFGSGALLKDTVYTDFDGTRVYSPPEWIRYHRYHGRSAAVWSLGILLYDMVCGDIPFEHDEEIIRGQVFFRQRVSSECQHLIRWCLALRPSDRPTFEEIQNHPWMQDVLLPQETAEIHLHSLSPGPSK

CNS(=O)(=O)Nc1nccc(Cc2c(C)c3ccc(Oc4ncccn4)cc3oc2=O)c1F [AVUTOMETINIB]
inactive: [1] > 30 µM | Adenosine kinase > 30 µM | [2] > 30 µM | [3] > 30 µM | [4] > 30 µM | [5] > 30 µM | [6] > 30 µM | [7] > 30 µM | [8] > 30 µM | DNA topoisomerase 2-beta > 30 µM | [9] > 30 µM | [10] > 30 µM
